Laboratory results reported in ChEMBL document CHEMBL1139253, “Effect of methyl substitution in a ligand on the selectivity and binding affinity for a nucleobase: a case study with isoxanthopterin and its derivatives” (Bioorg Med Chem, 2009).

Key:
[1] = Binding affinity to target base G of 5'-TCC AGX GCA AC-3'/3'_AGG TCG CGT TG-5' 11 mer duplex DNA containing abasic site assessed as melting temperature at 150 uM by spectrophotometric analysis relative to control
[2] = Binding affinity to target base A of 5'-TCC AGX GCA AC-3'/3'_AGG TCA CGT TG-5' 11 mer duplex DNA containing abasic site assessed as melting temperature at 150 uM by spectrophotometric analysis
[3] = Binding affinity to target base G of 5'-TCC AGX GCA AC-3'/3'_AGG TCG CGT TG-5' 11 mer duplex DNA containing abasic site assessed as melting temperature at 150 uM by spectrophotometric analysis
[4] = Binding affinity to target base C of 5'-TCC AGX GCA AC-3'/3'_AGG TCC CGT TG-5' 11 mer duplex DNA containing abasic site assessed as melting temperature at 150 uM by spectrophotometric analysis
[5] = Binding affinity to target base C of 5'-TCC AGX GCA AC-3'/3'_AGG TCC CGT TG-5' 11 mer duplex DNA containing abasic site assessed as melting temperature at 150 uM by spectrophotometric analysis relative to control
[6] = Binding affinity to target base C of 5'-TCC AGX GCA AC-3'/3'_AGG TCC CGT TG-5' 11 mer duplex DNA containing abasic site at 10 uM by fluorescence quenching measurement
[7] = Binding affinity to target base T of 5'-TCC AGX GCA AC-3'/3'_AGG TCT CGT TG-5' 11 mer duplex DNA containing abasic site assessed as melting temperature at 150 uM by spectrophotometric analysis
[8] = Binding affinity to target base A of 5'-TCC AGX GCA AC-3'/3'_AGG TCA CGT TG-5' 11 mer duplex DNA containing abasic site assessed as melting temperature at 150 uM by spectrophotometric analysis relative to control
[9] = Binding affinity to target base T of 5'-TCC AGX GCA AC-3'/3'_AGG TCT CGT TG-5' 11 mer duplex DNA containing abasic site at 10 uM by fluorescence quenching measurement
[10] = Binding affinity to target base T of 5'-TCC AGX GCA AC-3'/3'_AGG TCT CGT TG-5' 11 mer duplex DNA containing abasic site assessed as melting temperature at 150 uM by spectrophotometric analysis relative to control

ΔTm [1]	Tm [2]	Tm [3]	Tm [4]	ΔTm [5]	Tm [7]	ΔTm [8]	ΔTm [10]	SMILES	Activity [6]	Activity [9]
0.9 °C	34 °C	34.9 °C	35.1 °C	5.9 °C	29.7 °C	0.2 °C	1.8 °C	Cn1c(=O)cnc2c(=O)[nH]c(N)nc21	72%	–
0.9 °C	35.6 °C	34.9 °C	29.6 °C	0.4 °C	33.9 °C	1.8 °C	6 °C	Cn1c(N)nc2[nH]c(=O)cnc2c1=O	–	72.9%

SMILES	ΔTm [1]	Tm [2]	Tm [3]	Tm [4]	ΔTm [5]	Tm [7]	ΔTm [8]	ΔTm [10]	Activity [6]	Activity [9]
Nc1nc2[nH]c(=O)cnc2c(=O)[nH]1	-0.4 °C	36 °C	33.6 °C	33.7 °C	4.5 °C	32.7 °C	2.2 °C	4.8 °C	43.5%	51.7%
